Source: patent publication US9724351B2, “Compounds for the treatment of paramoxyvirus viral infections” (priority 2012, dated 2017)

Tests used:
[1] = test system: Respiratory Syncytial Virus (RSV) long strain (ATCC#VR-26); experiment: RSV Antiviral Assay (CPE reduction assay); assay type: cell-based; details: human respiratory syncytial virus, 120 h; HEp-2 cells infected with RSV long strain, 5 days, CCK-8 readout; bins (Table 2: less than 1 μM; Table 3: equal to or higher than 1 μM and less than 50 μM); read-out: 50% effective concentration (EC50)
Procedure: CPE reduction assays are performed as described by Sidwell and Huffman et al., Appl. Microbiol. (1971) 22(5):797-801 with slight modifications. HEp-2 cells (ATCC#, CCL-23) are seeded at a density of 1,500 cells/30 μl/well into the 384-well cell plate(s) (Corning#3701) one day prior to the assay. Compounds are added into 384-well cell plates by Labcyte POD 810 Plate Assembler system. Each of the test compounds is provided to duplicate wells of a 384-well cell plate at final concentrations starting from 100 μM or 1 μM using ⅓ stepwise dilutions for 9 points. Quick-thaw Respiratory Syncytial Virus (RSV) long strain (ATCC#VR-26) stock in a 37° C. water bath. Place on ice until ready to use. Viruses are diluted to the concentration of 100 TCID50/30 μl with medium and 30 μl diluted RSV are added into related wells of 384-well cell plates. For each plate, sixteen wells are set aside as uninfected, untreated cell controls (CC), and nine wells per test plate receive virus only as a control for virus replication (VC). The final DMSO concentration of all wells is 1%. Place the plates at 37° C., 5% CO2 for 5 days.
After 5 days incubation, observe the CPE of cells in all wells. […] Six μl of cell counting kit-8 reagent (CCK-8, Dojindo Molecular Technologies Inc., CK04-20) are added to each well, which allows colorimetric assays to determine the number of viable cells through the dehydrogenase activity detection. After 3-4 hour incubation, the absorbance of each well is measured with a spectrophotometric plate reader at 450 nm wavelength, using a 630 nm filter as background according to manufacturer's instruction. The 50% effective concentration (EC50) is calculated by using regression analysis, based on the mean O.D. at each concentration of compound.

[2] = Cytotoxicity Determination; assay type: cell-based; details: human, HEp-2 cells, without addition of virus, CCK-8 readout, bins (Table 4: greater than 100 μM; Table 5: equal to or less than 100 μM and greater than 10 μM), read-out: 50% cytotoxicity concentration (CC50)
Procedure: In order to determine the compound cytotoxicity, in parallel, each of the compounds is applied to duplicate wells in a 384-well cell plate at serial final concentrations starting from 100 μM using ½ stepwise dilutions for 7 points without addition of virus. Incubate the cells at 37° C., 5% CO2 for 5 days. Add 6 μl CCK-8 into each well and incubate in a CO2 incubator at 37° C. for 3-4 hours. Read the plates to obtain the optical densities which are used to calculate 50% cytotoxicity concentration (CC50).

Row | SMILES | EC50 [1] [nM] | CC50 at 5 days [2] [µM]
1 | CCc1cc(C(=O)CNC(=O)c2ccc(OCCO)c(OC)c2)nc(-c2coc3c(F)cccc23)c1 [Compound 2111] | < 1000 | > 100
2 | COc1ccc(C(=O)NCC(=O)c2ccc(OC)c(-c3ccnc(F)c3)n2)cc1OC [Compound 1535] | 1000 to 50000 | > 100
3 | C=CCC/C(=N\NC(=O)CNC(=O)c1ccc(OCC)c(OC)c1)c1csc2ccccc12 [Compound 458A] | < 1000 | 10 to 100
4 | CCc1ccc(C(=O)CNC(=O)c2ccc(OCCO)c(OC)c2)nc1-c1csc2c(F)cccc12 [Compound 2106] | < 1000 | 10 to 100
5 | COc1ccc(C(=O)NCC(=O)c2cc(CC(C)C)cc(-c3csc4c(F)cccc34)n2)cc1OC [Compound 1239] | 1000 to 50000 | > 100
6 | COc1ccc(C(=O)NCC(=O)NN=C(c2ccccn2)c2ccccn2)cc1OC [Compound 441] | 1000 to 50000 | > 100
7 | COc1cc(C(=O)NCC(=O)c2ccc(OC)c(-c3ccc(F)c(Cl)c3)n2)ccc1OCC(=O)N(C)C [Compound 1322] | < 1000 | > 100
8 | COc1ccc(C(=O)CNC(=O)c2ccc(OCCO)c(C)c2)nc1-c1ccc(F)c(Cl)c1 [Compound 1309] | < 1000 | > 100
9 | COc1cc(C(=O)NCC(=O)c2ccc(OC)c(-c3ccc(F)c(Cl)c3)n2)ccc1OCc1cnc[nH]1 [Compound 1332] | < 1000 | 10 to 100
10 | COc1cc(C(=O)NCC(=O)c2ccc(OC)c(-c3csc4c(F)cccc34)n2)ccc1OCCN [Compound 1232] | < 1000 | 10 to 100
11 | COc1ccc(C(=O)NCC(=O)c2ccc(OC)c(-c3ccc4cnn(C)c4c3)n2)cc1OC [Compound 1503] | 1000 to 50000 | 10 to 100
12 | COc1ccc(C(=O)NCC(=O)c2nc(-c3csc4c(F)cccc34)c(C)n2C)cc1OC [Compound 1358] | < 1000 | 10 to 100
13 | COc1cc(C(=O)NCC(=O)c2ccc(OC)c(-c3ccc(F)c(Br)c3)n2)ccc1OCc1ncn[nH]1 [Compound 3903] | < 1000 | > 100
14 | COc1ccc(C(=O)NCC(=O)c2nc(-c3csc4c(F)cccc34)cn2C)cc1OC [Compound 1353] | 1000 to 50000 | > 100
15 | COc1cc(C(=O)NCC(=O)c2ccc(OC)c(-c3csc4c(F)cccc34)n2)ccc1OCCF [Compound 2625] | < 1000 | > 100
16 | COc1cc(C(=O)NCC(=O)c2ccc(OC)c(-c3ccc(OC(F)(F)F)cc3)n2)ccc1OCCO [Compound 1602] | < 1000 | > 100
17 | COc1ccc(C(=O)NC(CCC(=O)O)C(=O)c2ccc(OC)c(-c3csc4c(F)cccc34)n2)cc1OC (stereo not drawn) [Compound 1821] | < 1000 | 10 to 100
18 | COc1ccc(C(=O)NCC(=O)c2cccc(-c3csc4c(F)cccc34)n2)cc1OC [Compound 1202] | 1000 to 50000 | > 100
19 | COc1ccc(C(=O)NCC(=O)N/N=C(\C)c2csc3cc(F)ccc23)cc1OC [Compound 400-22] | 1000 to 50000 | 10 to 100
20 | COc1ccc(C(=O)NCC(=O)c2ccc(OC)c(-c3cncc4ccccc34)n2)cc1OC [Compound 1512] | 1000 to 50000 | –
21 | COc1cc(C(=O)NCC(=O)c2ccc(OC)c(-c3ccc(F)c(Cl)c3)n2)ccc1-c1cccnc1 [Compound 2504] | 1000 to 50000 | –
22 | COc1cc(C(=O)NCC(=O)c2ccc(OC)c(-c3ccc(F)c(Cl)c3)n2)ccc1OCCO [Compound 1310] | < 1000 | –
23 | COc1ccc(C(=O)NCC(=O)c2ccc(OC)c(-c3ccccc3-c3ccccc3)n2)cc1OC [Compound 1523] | 1000 to 50000 | –
24 | COc1cc(C(=O)NCC(=O)c2ccc(OC)c(-c3ccc(F)c(Cl)c3)n2)ccc1-c1ccncc1 [Compound 2507] | 1000 to 50000 | –
25 | CCN(CC)c1ccc(C(=O)NCC(=O)N/N=C(\C)c2csc3ccccc23)cc1N(CC)CC [Compound 506] | 1000 to 50000 | –
26 | COc1cc(C(=O)NCC(=O)c2ccc(OC)c(-c3ccc(F)c(Cl)c3)n2)ccc1OC1CC(N)C1 (stereo not drawn) [Compound 1359] | < 1000 | –
